Measured values taken from patent US20070128217A1 (priority 2003, published 2007).

Columns and labels:
[1] = test system: control sera (pooled serum of ten healthy LUMC hospital workers; commercial negative donor pooled serum from the Dutch bloodbank); assay type: binding, human; parameters: Binding of Control serum LUMC to linear peptides / Binding of Control serum Blood-bank to linear peptides / Binding of Control serum LUMC to looped peptides / Binding of Control Serum Blood-Bank to Looped peptides / Binding of Control serum LUMC to linear peptides of the protein M of SARS-CoV Urbani / Binding of Control serum Blood-bank to linear peptides of the protein M of SARS-CoV Urbani / Binding of Control serum LUMC to looped peptides of the protein M of SARS-CoV Urbani / Binding of Control Serum Blood-Bank to Looped peptides of the protein M of SARS-CoV Urbani: unit not given here
[2] = test system: rabbit serum obtained by immunizing a rabbit with the SARS-CoV strain Frankfurt 1; assay type: binding; parameters: Binding of a rabbit serum to linear peptides / Binding of a rabbit serum to looped peptides / Rabbit serum linear peptides / Rabbit serum looped peptides / Binding of a rabbit serum to linear peptides of protein N of SARS-CoV Urbani (Rabbit serum linear peptides) / Binding of a rabbit serum to looped/cyclic peptides of protein N of SARS-CoV Urbani (Rabbit serum looped peptides): unit not given here
[3] = test system: antibodies in sera from SARS patients (sera 1a, 1b, 2, 6, 37, 62, London, SARS-yellow, SARS-green); assay type: binding, human; parameters: Binding of serum 6 to linear peptides of protein X1 of SARS-CoV Urbani / Binding of serum 37 to linear peptides of protein X1 of SARS-CoV Urbani / Binding of serum 6 to looped/cyclic peptide (PEPSCAN-ELISA) / Binding of serum 37 to looped/cyclic peptide (PEPSCAN-ELISA) / Binding of serum 37 to looped/cyclic peptides of protein X1 of SARS-CoV Urbani / Binding of serum 6 to linear peptides of protein X2 / Binding of serum 37 to linear peptides of protein X2 / Binding of serum 37 to looped/cyclic peptides of protein X2 of SARS-CoV Urbani / Binding of serum 6 to linear peptides of protein M of SARS-CoV Urbani / Binding of serum 37 to linear peptides of protein M of SARS-CoV Urbani / Binding of serum 6 to looped/cyclic peptides of protein M of SARS-CoV Urbani / Binding of serum 37 to looped/cyclic peptides of protein M of SARS-CoV Urbani / Binding of serum 6 to linear peptides of protein X3 of SARS-CoV Urbani / Binding of serum 37 to linear peptides of protein X3 of SARS-CoV Urbani / Binding of serum 37 to looped/cyclic peptides of protein X3 of SARS-CoV Urbani / Binding of serum 6 to linear peptides of protein X4 of SARS-CoV Urbani / Binding of serum 37 to linear peptides of protein X4 of SARS-CoV Urbani / Binding of serum 37 to looped/cyclic peptides of protein X4 of SARS-CoV Urbani / Binding of serum 6 to linear peptides of protein X5 of SARS-CoV Urbani / Binding of serum 37 to linear peptides of protein X5 of SARS-CoV Urbani / Binding of serum 37 to looped/cyclic peptides of protein X5 of SARS-CoV Urbani / Binding of serum 6 to linear peptides of protein N of SARS-CoV Urbani / Binding of serum 37 to linear peptides of protein N of SARS-CoV Urbani / Binding of serum 6 to linear peptide (PEPSCAN-ELISA) / Binding of serum 1a to looped/cyclic peptides of protein N of SARS-CoV Urbani / Binding of serum 1b to looped/cyclic peptides of protein N of SARS-CoV Urbani / Binding of serum 2 to looped/cyclic peptides of protein N of SARS-CoV Urbani / Binding of serum 6 to looped/cyclic peptides of protein N of SARS-CoV Urbani / Binding of serum 37 to looped/cyclic peptides of protein N of SARS-CoV Urbani / Binding of serum 62 to looped/cyclic peptides of protein N of SARS-CoV Urbani / Binding of serum London to looped/cyclic peptides of protein N of SARS-CoV Urbani / Binding of serum SARS-green to looped/cyclic peptides of protein N of SARS-CoV Urbani: unit not given here

Sequence | Binding of Control Serum Blood-Bank to Looped peptides [1] | Binding of Control serum Blood-bank to linear peptides [1] | Binding of Control serum LUMC to linear peptides [1] | Binding of Control serum LUMC to looped peptides [1] | Rabbit serum linear peptides [2] | Rabbit serum looped peptides [2] | Binding of serum 1a to linear peptides of protein X4 of SARS-CoV Urbani [3] | Binding of serum 1a to looped/cyclic peptides of protein X4 of SARS-CoV Urbani [3] | Binding of serum 1b to linear peptides of protein X4 of SARS-CoV Urbani [3] | Binding of serum 1b to looped/cyclic peptides of protein X4 of SARS-CoV Urbani [3] | Binding of serum 2 to linear peptides of protein X4 of SARS-CoV Urbani [3] | Binding of serum 2 to looped/cyclic peptides of protein X4 of SARS-CoV Urbani [3] | Binding of serum 6 to linear peptides of protein X4 of SARS-CoV Urbani [3] | Binding of serum 6 to looped/cyclic peptides of protein X4 of SARS-CoV Urbani [3] | Binding of serum 37 to linear peptides of protein X4 of SARS-CoV Urbani [3] | Binding of serum 37 to looped/cyclic peptides of protein X4 of SARS-CoV Urbani [3] | Binding of serum 62 to linear peptides of protein X4 of SARS-CoV Urbani [3] | Binding of serum 62 to looped/cyclic peptides of protein X4 of SARS-CoV Urbani [3] | Binding of serum London to linear peptides of protein X4 of SARS-CoV Urbani [3] | Binding of serum London to looped/cyclic peptides of protein X4 of SARS-CoV Urbani [3] | other results
KIILFLTLIVFTSCE | 0.8 | 0.8 | 0.9 | 0.9 | 0.7 | 0.9 | 0.8 | 0.9 | 0.9 | 0.2 | 0.7 | 0.8 | 0.7 | 0.6 | 1.1 | 0.9 | 0.9 | 0.9 | 0.8 | 0.4 | Binding of serum SARS-green to linear peptides of protein X4 of SARS-CoV Urbani [3]: 0.7; Binding of serum SARS-green to looped/cyclic peptides of protein X4 of SARS-CoV Urbani [3]: 0.7; Binding of serum SARS-yellow to linear peptides of protein X4 of SARS-CoV Urbani [3]: 0.9; Binding of serum SARS-yellow to looped/cyclic peptides of protein X4 of SARS-CoV Urbani [3]: 0.8
KILVRYNTRGNTYST | 0.5 | 0.8 | 0.6 | 0.6 | 0.7 | 0.4 | – | – | – | – | – | – | – | – | – | – | – | – | – | – | Binding of serum 1a to linear peptides of protein X5 of SARS-CoV Urbani [3]: 0.7; Binding of serum 1a to looped/cyclic peptides of protein X5 of SARS-CoV Urbani [3]: 0.5; Binding of serum 1b to linear peptides of protein X5 of SARS-CoV Urbani [3]: 0.5; Binding of serum 1b to looped/cyclic peptides of protein X5 of SARS-CoV Urbani [3]: 0.3; Binding of serum 2 to linear peptides of protein X5 of SARS-CoV Urbani [3]: 0.7; Binding of serum 2 to looped/cyclic peptides of protein X5 of SARS-CoV Urbani [3]: 0.5; Binding of serum 6 to linear peptides of protein X5 of SARS-CoV Urbani [3]: 0.7; Binding of serum 6 to looped/cyclic peptides of protein X5 of SARS-CoV Urbani [3]: 0.5; Binding of serum 37 to linear peptides of protein X5 of SARS-CoV Urbani [3]: 0.7; Binding of serum 37 to looped/cyclic peptides of protein X5 of SARS-CoV Urbani [3]: 0.5; Binding of serum 62 to linear peptides of protein X5 of SARS-CoV Urbani [3]: 0.8; Binding of serum 62 to looped/cyclic peptides of protein X5 of SARS-CoV Urbani [3]: 0.7; Binding of serum London to linear peptides of protein X5 of SARS-CoV Urbani [3]: 0.7; Binding of serum London to looped/cyclic peptides of protein X5 of SARS-CoV Urbani [3]: 0.3; Binding of serum SARS-green to linear peptides of protein X5 of SARS-CoV Urbani [3]: 0.5; Binding of serum SARS-green to looped/cyclic peptides of protein X5 of SARS-CoV Urbani [3]: 0.3; Binding of serum SARS-yellow to linear peptides of protein X5 of SARS-CoV Urbani [3]: 0.1; Binding of serum SARS-yellow to looped/cyclic peptides of protein X5 of SARS-CoV Urbani [3]: 0.6
KLFIRQEEVQQELYS | 0.8 | 0.5 | 0.5 | 0.8 | 0.5 | 0.5 | 0.7 | 0.7 | 0.5 | 0.6 | 0.4 | 0.6 | 0.5 | 0.4 | 0.7 | 0.7 | 0.8 | 0.6 | 0.7 | 0.3 | Binding of serum SARS-green to linear peptides of protein X4 of SARS-CoV Urbani [3]: 0.6; Binding of serum SARS-green to looped/cyclic peptides of protein X4 of SARS-CoV Urbani [3]: 0.8; Binding of serum SARS-yellow to linear peptides of protein X4 of SARS-CoV Urbani [3]: 0.4; Binding of serum SARS-yellow to looped/cyclic peptides of protein X4 of SARS-CoV Urbani [3]: 0.6
